Source: patent US20220119354A1, “DIAMINO-SUBSTITUTED PYRIDINES AND PYRIMIDINES AS HERBICIDES” (FMC Corporation, priority 2019, published 2022)

Columns and labels:
Format in all cases: in vivo
[1] = system: barnyardgrass (Echinochloa crus-galli); assay: Test A preemergence, barnyardgrass; settings: 0 to 100 scale; for Barnyardgrass plant response rating: 0 is no effect, 100 is complete control
Outline: (§1)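 Greenhouse pot test, loam/sand soil. Pre: directed soil spray at planting; post: foliar spray at 1–2 leaf stage (2–10 cm). Chemical in non-phytotoxic solvent + surfactant. Visual rating ~10 d, 0 = no effect, 100 = complete control.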

[2] = system: sedge, umbrella (small-flower umbrella sedge, Cyperus difformis); assay: Test B flooded paddy test, umbrella sedge; settings: Flood, 250 g ai/ha, applied to paddy water, 2-leaf stage, visual evaluation after 13 to 15 d
Outline: (§2)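 Growth to two leaves preceded treatment. Flooding to 3 cm above soil surface, then water-applied compound; depth kept constant. Scored visually relative to controls after 13–15 d greenhouse; 100 means full control.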

[3] = system: barnyardgrass (Echinochloa crus-galli); assay: Test A postemergence, barnyardgrass; settings: 0 to 100 scale
Outline: as §1

rice (Oryza sativa) = assay: Test B flooded paddy test, rice; settings: Flood, 250 g ai/ha, applied to paddy water, 2-leaf stage, visual evaluation after 13 to 15 d
Outline: as §2

kochia (Kochia scoparia) [4] = assay: Test A preemergence, kochia; settings: 0 to 100 scale; for Kochia plant response rating: 0 is no effect, 100 is complete control
Outline: as §1

[5] = system: wheat (Triticum aestivum); assay: Test A postemergence, wheat; settings: 0 to 100 scale
Outline: as §1

[6] = system: ducksalad (Heteranthera limosa); assay: Test B flooded paddy test, ducksalad; settings: Flood, 250 g ai/ha, applied to paddy water, 2-leaf stage, visual evaluation after 13 to 15 d
Outline: as §2

[7] = system: galium (catchweed bedstraw, Galium aparine); assay: Test A postemergence, galium; settings: 0 to 100 scale
Outline: as §1

[8] = system: ryegrass, Italian (Lolium multiflorum); assay: Test A preemergence, Italian ryegrass; settings: 0 to 100 scale; for Ryegrass, Italian plant response rating: 0 is no effect, 100 is complete control
Outline: as §1

[9] = system: ryegrass, Italian (Lolium multiflorum); assay: Test A postemergence, Italian ryegrass; settings: 0 to 100 scale
Outline: as §1

kochia (Kochia scoparia) [10] = assay: Test A postemergence, kochia; settings: 0 to 100 scale
Outline: as §1

[11] = system: pigweed (Amaranthus retroflexus); assay: Test A postemergence, pigweed; settings: 0 to 100 scale
Outline: as §1

[12] = system: foxtail, giant (Setaria faberii); assay: Test A preemergence, giant foxtail; settings: 0 to 100 scale; for Foxtail, Giant plant response rating: 0 is no effect, 100 is complete control
Outline: as §1

[13] = system: blackgrass (Alopecurus myosuroides); assay: Test A postemergence, blackgrass; settings: 0 to 100 scale
Outline: as §1

[14] = system: ragweed (common ragweed, Ambrosia elatior); assay: Test A postemergence, ragweed; settings: 0 to 100 scale
Outline: as §1

[15] = system: ragweed (common ragweed, Ambrosia elatior); assay: Test A preemergence, ragweed; settings: 0 to 100 scale; for Ragweed plant response rating: 0 is no effect, 100 is complete control
Outline: as §1

[16] = system: foxtail, giant (Setaria faberii); assay: Test A postemergence, giant foxtail; settings: 0 to 100 scale
Outline: as §1

[17] = system: barnyardgrass (Echinochloa crus-galli); assay: Test B flooded paddy test, barnyardgrass; settings: Flood, 250 g ai/ha, applied to paddy water, 2-leaf stage, visual evaluation after 13 to 15 d
Outline: as §2

corn (Zea mays) = assay: Test A postemergence, corn; settings: 0 to 100 scale
Outline: as §1

[18] = system: pigweed (Amaranthus retroflexus); assay: Test A preemergence, pigweed; settings: 0 to 100 scale; for Pigweed plant response rating: 0 is no effect, 100 is complete control
Outline: as §1

[19] = 125 g ai/ha, 0 no effect, 100 complete control
[20] = 500 g ai/ha, 0 no effect, 100 complete control

CC(Nc1ncc(C#N)c(N)n1)c1cc2ccccc2o1 (racemic) [Compound 19]
Plant response rating, Barnyardgrass ([1]; 125 g ai/ha): 0 | Plant response rating, Barnyardgrass ([1]; 500 g ai/ha): 0 | Plant response rating, Sedge, Umbrella (0 to 100 scale, 0 is no effect, 100 is complete control) [2]: 0 | Plant response rating, Barnyardgrass ([3]; 125 g ai/ha): 0 | Plant response rating, Barnyardgrass ([3]; 500 g ai/ha): 0 | Plant response rating, Rice (0 to 100 scale, 0 is no effect, 100 is complete control) (rice (Oryza sativa)): 0 | Plant response rating, Kochia (kochia (Kochia scoparia) [4]; 125 g ai/ha): 0 | Plant response rating, Kochia (kochia (Kochia scoparia) [4]; 500 g ai/ha): 20 | Plant response rating, Wheat ([5]; 125 g ai/ha): 0 | Plant response rating, Wheat ([5]; 500 g ai/ha): 0 | Plant response rating, Ducksalad (0 to 100 scale, 0 is no effect, 100 is complete control) [6]: 0 | Plant response rating, Galium ([7]; 125 g ai/ha): 0 | Plant response rating, Galium ([7]; 500 g ai/ha): 70 | Plant response rating, Ryegrass, Italian ([8]; 125 g ai/ha): 0 | Plant response rating, Ryegrass, Italian ([8]; 500 g ai/ha): 60 | Plant response rating, Ryegrass, Italian ([9]; 125 g ai/ha): 0 | Plant response rating, Ryegrass, Italian ([9]; 500 g ai/ha): 20 | Plant response rating, Kochia (kochia (Kochia scoparia) [10]; 125 g ai/ha): 0 | Plant response rating, Kochia (kochia (Kochia scoparia) [10]; 500 g ai/ha): 30 | Plant response rating, Pigweed ([11]; 125 g ai/ha): 0 | Plant response rating, Pigweed ([11]; 500 g ai/ha): 50 | Plant response rating, Foxtail, Giant ([12]; 125 g ai/ha): 0 | Plant response rating, Foxtail, Giant ([12]; 500 g ai/ha): 20 | Plant response rating, Blackgrass ([13]; 125 g ai/ha): 20 | Plant response rating, Blackgrass ([13]; 500 g ai/ha): 60 | Plant response rating, Ragweed ([14]; 125 g ai/ha): 0 | Plant response rating, Ragweed ([14]; 500 g ai/ha): 0 | Plant response rating, Ragweed ([15]; 125 g ai/ha): 0 | Plant response rating, Ragweed ([15]; 500 g ai/ha): 50 | Plant response rating, Foxtail, Giant ([16]; 125 g ai/ha): 0 | Plant response rating, Foxtail, Giant ([16]; 500 g ai/ha): 0 | Plant response rating, Barnyardgrass (0 to 100 scale, 0 is no effect, 100 is complete control) [17]: 0 | Plant response rating, Corn (corn (Zea mays); 125 g ai/ha): 0 | Plant response rating, Corn (corn (Zea mays); 500 g ai/ha): 10 | Plant response rating, Pigweed ([18]; 125 g ai/ha): 30 | Plant response rating, Pigweed ([18]; 500 g ai/ha): 90

C[C@H](Nc1ncc(C(F)(F)F)c(N)n1)c1cc2ccccc2n1C [Compound 76]
Barnyardgrass plant response rating ([1]; 125 g ai/ha): 0 | Barnyardgrass plant response rating ([1]; 500 g ai/ha): 0 | Plant response rating, Sedge, Umbrella (0 to 100 scale, 0 is no effect, 100 is complete control) [2]: 0 | Plant response rating, Barnyardgrass [3, 19]: 0 | Plant response rating, Barnyardgrass [3, 20]: 0 | Plant response rating, Rice (0 to 100 scale, 0 is no effect, 100 is complete control) (rice (Oryza sativa)): 0 | Kochia plant response rating (kochia (Kochia scoparia) [4]; 125 g ai/ha): 0 | Kochia plant response rating (kochia (Kochia scoparia) [4]; 500 g ai/ha): 0 | Plant response rating, Wheat [5, 19]: 0 | Plant response rating, Wheat [5, 20]: 0 | Plant response rating, Ducksalad (0 to 100 scale, 0 is no effect, 100 is complete control) [6]: 0 | Plant response rating, Galium [7, 19]: 30 | Plant response rating, Galium [7, 20]: 30 | Ryegrass, Italian plant response rating ([8]; 125 g ai/ha): 0 | Ryegrass, Italian plant response rating ([8]; 500 g ai/ha): 30 | Plant response rating, Ryegrass, Italian [9, 19]: 0 | Plant response rating, Ryegrass, Italian [9, 20]: 0 | Plant response rating, Kochia (kochia (Kochia scoparia) [10]; [19]): 0 | Plant response rating, Kochia (kochia (Kochia scoparia) [10]; [20]): 0 | Plant response rating, Pigweed [11, 19]: 0 | Plant response rating, Pigweed [11, 20]: 0 | Foxtail, Giant plant response rating ([12]; 125 g ai/ha): 0 | Foxtail, Giant plant response rating ([12]; 500 g ai/ha): 0 | Plant response rating, Blackgrass [13, 19]: 0 | Plant response rating, Blackgrass [13, 20]: 0 | Plant response rating, Ragweed [14, 19]: 0 | Plant response rating, Ragweed [14, 20]: 30 | Ragweed plant response rating ([15]; 125 g ai/ha): 0 | Ragweed plant response rating ([15]; 500 g ai/ha): 0 | Plant response rating, Foxtail, Giant [16, 19]: 0 | Plant response rating, Foxtail, Giant [16, 20]: 0 | Plant response rating, Barnyardgrass (0 to 100 scale, 0 is no effect, 100 is complete control) [17]: 0 | Plant response rating, Corn (corn (Zea mays); [19]): 0 | Plant response rating, Corn (corn (Zea mays); [20]): 0 | Pigweed plant response rating ([18]; 125 g ai/ha): 0 | Pigweed plant response rating ([18]; 500 g ai/ha): 0
